Measured values published in ChEMBL document CHEMBL3393036, “Tetra-substituted pyridinylimidazoles as dual inhibitors of p38α mitogen-activated protein kinase and c-Jun N-terminal kinase 3 for potential treatment of neurodegenerative diseases” (J Med Chem, 2015).

Legend:
[1] = biological target: T1, Aurora kinase A (Homo sapiens) (UniProt O14965); assay: Inhibition of AURKA (unknown origin) at 5.5 uM by Caliper Mobility Shift Assay
T1 sequence (whole entry): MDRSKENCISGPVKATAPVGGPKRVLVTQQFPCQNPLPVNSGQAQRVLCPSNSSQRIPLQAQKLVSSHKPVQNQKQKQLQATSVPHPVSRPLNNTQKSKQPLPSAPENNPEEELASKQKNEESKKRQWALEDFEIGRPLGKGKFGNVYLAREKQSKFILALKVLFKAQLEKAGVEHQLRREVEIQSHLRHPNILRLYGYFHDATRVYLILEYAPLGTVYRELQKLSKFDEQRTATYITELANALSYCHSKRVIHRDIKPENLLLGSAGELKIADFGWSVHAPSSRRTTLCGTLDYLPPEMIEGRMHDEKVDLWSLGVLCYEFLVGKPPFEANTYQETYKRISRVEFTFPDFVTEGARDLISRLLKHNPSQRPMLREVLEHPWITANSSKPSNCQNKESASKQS

[2] = biological target: Fibroblast growth factor receptor 2 (Homo sapiens) (UniProt P21802); assay: Inhibition of FGFR2 (unknown origin) at 5.5 uM by Caliper Mobility Shift Assay
Sequence of Fibroblast growth factor receptor 2 (Homo sapiens) (P21802 22-821 limits assumed): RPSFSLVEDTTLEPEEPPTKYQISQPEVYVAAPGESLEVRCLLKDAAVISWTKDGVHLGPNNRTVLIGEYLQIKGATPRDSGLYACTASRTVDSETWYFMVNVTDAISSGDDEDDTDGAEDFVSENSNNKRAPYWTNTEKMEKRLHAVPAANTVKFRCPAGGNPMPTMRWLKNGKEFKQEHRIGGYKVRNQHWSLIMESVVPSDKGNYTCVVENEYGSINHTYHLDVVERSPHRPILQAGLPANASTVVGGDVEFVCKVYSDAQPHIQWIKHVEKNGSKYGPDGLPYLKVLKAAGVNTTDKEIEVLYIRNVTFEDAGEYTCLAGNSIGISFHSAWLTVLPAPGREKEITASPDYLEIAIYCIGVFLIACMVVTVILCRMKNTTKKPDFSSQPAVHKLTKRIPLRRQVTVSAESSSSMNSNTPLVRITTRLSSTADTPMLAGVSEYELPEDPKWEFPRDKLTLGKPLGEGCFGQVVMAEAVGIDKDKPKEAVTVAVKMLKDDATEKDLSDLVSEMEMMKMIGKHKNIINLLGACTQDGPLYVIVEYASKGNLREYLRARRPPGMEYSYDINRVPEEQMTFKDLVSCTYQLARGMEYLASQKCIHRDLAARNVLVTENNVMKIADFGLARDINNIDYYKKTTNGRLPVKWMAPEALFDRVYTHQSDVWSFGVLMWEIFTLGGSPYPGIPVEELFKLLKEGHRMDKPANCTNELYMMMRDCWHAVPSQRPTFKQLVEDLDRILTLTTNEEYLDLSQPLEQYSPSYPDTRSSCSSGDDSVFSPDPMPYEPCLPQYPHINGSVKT

[3] = system: Fibroblast growth factor receptor 3 (Homo sapiens), P22607 [K650E]; assay: Inhibition of FGFR3 K650E (unknown origin) at 5.5 uM by Caliper Mobility Shift Assay
[4] = biological target: Mitogen-activated protein kinase 10 (Homo sapiens, UniProt P53779); assay: Inhibition of MAPK10 (JNK3) (unknown origin) at 5.5 uM by Caliper Mobility Shift Assay
Sequence of Mitogen-activated protein kinase 10 (P53779 whole entry): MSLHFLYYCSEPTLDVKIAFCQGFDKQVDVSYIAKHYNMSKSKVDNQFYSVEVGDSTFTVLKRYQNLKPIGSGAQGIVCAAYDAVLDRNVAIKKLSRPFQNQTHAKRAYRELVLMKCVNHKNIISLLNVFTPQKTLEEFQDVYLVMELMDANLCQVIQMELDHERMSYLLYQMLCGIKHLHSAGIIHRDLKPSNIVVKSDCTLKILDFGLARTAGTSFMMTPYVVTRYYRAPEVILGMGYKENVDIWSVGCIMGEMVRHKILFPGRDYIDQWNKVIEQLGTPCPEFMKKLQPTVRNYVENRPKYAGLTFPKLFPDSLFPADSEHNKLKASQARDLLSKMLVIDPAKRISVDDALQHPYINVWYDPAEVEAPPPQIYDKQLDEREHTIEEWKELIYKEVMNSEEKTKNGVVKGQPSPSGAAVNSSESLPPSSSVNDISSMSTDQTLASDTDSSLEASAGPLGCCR

[5] = biological target: Glycogen synthase kinase-3 beta (Homo sapiens) (UniProt P49841); assay: Inhibition of GSK3beta (unknown origin) at 5.5 uM by Caliper Mobility Shift Assay
Sequence of Glycogen synthase kinase-3 beta (Homo sapiens) (P49841 whole entry, looked up): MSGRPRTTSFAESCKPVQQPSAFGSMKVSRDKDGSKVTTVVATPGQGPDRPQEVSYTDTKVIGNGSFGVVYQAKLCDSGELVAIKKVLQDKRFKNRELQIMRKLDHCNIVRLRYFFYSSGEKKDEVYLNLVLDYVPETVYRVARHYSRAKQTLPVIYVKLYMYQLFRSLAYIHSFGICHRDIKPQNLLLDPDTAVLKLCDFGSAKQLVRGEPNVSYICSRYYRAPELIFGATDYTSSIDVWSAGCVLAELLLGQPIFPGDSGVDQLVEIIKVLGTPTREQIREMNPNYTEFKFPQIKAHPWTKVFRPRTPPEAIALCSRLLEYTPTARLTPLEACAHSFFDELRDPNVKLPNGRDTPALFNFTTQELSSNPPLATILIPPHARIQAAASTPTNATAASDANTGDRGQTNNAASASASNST

[6] = biological target: Hepatocyte growth factor receptor (Homo sapiens) (UniProt P08581); assay: Inhibition of MET (unknown origin) at 5.5 uM by Caliper Mobility Shift Assay
Sequence of Hepatocyte growth factor receptor (Homo sapiens) (P08581 whole entry): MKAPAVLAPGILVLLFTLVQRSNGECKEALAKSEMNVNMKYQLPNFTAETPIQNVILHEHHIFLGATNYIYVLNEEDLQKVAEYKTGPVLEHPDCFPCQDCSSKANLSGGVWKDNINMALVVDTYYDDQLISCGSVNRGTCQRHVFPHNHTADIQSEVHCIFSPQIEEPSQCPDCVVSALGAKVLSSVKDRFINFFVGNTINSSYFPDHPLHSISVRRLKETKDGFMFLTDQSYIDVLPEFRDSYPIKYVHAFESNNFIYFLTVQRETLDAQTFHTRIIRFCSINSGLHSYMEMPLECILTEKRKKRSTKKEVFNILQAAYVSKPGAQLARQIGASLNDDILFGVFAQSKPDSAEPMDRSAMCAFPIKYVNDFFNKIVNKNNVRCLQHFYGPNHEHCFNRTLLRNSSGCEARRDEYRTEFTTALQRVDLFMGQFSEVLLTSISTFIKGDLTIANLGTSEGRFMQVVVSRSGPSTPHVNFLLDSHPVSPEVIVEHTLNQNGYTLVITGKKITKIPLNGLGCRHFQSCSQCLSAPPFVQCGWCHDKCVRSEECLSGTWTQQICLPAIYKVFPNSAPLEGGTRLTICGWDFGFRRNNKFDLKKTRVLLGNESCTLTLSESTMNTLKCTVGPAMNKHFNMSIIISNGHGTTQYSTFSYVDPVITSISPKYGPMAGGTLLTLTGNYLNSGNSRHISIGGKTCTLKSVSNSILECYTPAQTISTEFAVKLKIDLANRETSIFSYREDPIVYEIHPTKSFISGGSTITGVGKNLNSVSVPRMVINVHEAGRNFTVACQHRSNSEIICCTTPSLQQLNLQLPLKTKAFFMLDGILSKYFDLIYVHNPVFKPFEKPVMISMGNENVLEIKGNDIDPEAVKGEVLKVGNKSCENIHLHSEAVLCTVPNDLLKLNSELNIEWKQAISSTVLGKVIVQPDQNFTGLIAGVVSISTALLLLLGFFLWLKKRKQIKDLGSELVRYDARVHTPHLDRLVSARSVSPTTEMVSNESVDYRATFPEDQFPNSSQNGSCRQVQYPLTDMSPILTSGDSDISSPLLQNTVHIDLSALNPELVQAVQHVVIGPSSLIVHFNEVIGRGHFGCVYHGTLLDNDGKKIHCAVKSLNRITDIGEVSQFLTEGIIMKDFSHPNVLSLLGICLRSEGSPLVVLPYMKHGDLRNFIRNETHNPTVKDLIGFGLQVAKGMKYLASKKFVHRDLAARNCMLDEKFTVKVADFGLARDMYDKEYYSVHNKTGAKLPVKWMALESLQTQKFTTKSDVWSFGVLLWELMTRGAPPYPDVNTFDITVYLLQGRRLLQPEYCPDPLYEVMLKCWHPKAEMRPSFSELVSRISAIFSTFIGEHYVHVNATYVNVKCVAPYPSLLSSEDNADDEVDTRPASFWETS

[7] = biological target: Calcium/calmodulin-dependent protein kinase type II subunit beta (Homo sapiens) (UniProt Q13554); assay: Inhibition of CAMK2 (unknown origin) at 5.5 uM by Caliper Mobility Shift Assay
Sequence of Calcium/calmodulin-dependent protein kinase type II subunit beta (Homo sapiens) (Q13554 whole entry): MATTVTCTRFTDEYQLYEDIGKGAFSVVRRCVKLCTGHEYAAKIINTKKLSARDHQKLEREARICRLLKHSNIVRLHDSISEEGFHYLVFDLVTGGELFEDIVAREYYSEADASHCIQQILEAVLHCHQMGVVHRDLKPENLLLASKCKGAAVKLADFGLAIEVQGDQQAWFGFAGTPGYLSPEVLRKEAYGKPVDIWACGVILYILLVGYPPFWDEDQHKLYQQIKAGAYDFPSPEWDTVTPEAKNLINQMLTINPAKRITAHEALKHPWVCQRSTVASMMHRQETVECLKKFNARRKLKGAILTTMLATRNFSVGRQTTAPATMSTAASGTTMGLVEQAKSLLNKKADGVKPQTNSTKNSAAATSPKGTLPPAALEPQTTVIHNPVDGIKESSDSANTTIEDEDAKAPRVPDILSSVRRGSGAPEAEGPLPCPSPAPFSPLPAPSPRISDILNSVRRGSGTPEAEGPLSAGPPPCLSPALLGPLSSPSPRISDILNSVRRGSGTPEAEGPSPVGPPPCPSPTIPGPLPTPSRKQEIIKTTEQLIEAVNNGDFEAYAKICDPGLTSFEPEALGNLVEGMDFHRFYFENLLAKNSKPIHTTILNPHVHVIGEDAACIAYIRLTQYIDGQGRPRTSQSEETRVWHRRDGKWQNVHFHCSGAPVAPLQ

[8] = biological target: Tyrosine-protein kinase BTK (Homo sapiens) (UniProt Q06187); assay: Inhibition of BTK (unknown origin) at 5.5 uM by Caliper Mobility Shift Assay
Sequence of Tyrosine-protein kinase BTK (Homo sapiens) (Q06187 whole entry): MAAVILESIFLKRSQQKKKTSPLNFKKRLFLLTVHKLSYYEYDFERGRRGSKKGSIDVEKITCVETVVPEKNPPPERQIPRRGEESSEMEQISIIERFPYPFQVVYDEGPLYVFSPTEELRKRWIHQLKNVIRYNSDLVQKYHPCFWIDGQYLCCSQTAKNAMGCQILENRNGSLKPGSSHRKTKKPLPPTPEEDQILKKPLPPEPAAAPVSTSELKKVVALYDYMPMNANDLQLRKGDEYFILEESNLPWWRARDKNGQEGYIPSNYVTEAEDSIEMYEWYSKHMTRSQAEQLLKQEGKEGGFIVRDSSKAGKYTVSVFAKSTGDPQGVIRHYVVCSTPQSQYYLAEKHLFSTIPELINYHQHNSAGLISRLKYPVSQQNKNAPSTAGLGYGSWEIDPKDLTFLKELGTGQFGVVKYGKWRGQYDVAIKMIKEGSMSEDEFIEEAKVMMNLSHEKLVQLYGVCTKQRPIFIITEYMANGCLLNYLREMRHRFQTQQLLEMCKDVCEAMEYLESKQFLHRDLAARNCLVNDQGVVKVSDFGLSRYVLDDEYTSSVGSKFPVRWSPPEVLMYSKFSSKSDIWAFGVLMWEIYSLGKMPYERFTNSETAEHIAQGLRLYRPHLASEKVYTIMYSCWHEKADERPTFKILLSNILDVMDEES

[9] = biological target: T2, MAP kinase-activated protein kinase 5 (Homo sapiens) (UniProt Q8IW41); assay: Inhibition of MAPKAPK5 (MK5) (unknown origin) at 5.5 uM by Caliper Mobility Shift Assay
T2 sequence (whole entry): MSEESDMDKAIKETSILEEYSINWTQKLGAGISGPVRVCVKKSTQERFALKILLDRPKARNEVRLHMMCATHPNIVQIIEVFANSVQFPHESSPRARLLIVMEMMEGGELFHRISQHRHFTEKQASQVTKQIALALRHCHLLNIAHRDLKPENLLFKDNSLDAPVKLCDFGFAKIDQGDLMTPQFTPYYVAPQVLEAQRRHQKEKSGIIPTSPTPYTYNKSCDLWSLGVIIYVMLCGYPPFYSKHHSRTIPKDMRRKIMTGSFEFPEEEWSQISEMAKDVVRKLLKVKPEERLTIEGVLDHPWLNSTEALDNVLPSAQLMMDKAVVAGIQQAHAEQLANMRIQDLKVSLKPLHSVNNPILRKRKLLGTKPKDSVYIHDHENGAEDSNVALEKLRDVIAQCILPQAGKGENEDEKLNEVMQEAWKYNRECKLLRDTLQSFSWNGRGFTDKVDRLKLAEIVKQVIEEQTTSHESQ

[10] = biological target: Ribosomal protein S6 kinase beta-2 (Homo sapiens) (UniProt Q9UBS0); assay: Inhibition of S6K (unknown origin) at 5.5 uM by Caliper Mobility Shift Assay
Sequence of Ribosomal protein S6 kinase beta-2 (Homo sapiens) (Q9UBS0 whole entry): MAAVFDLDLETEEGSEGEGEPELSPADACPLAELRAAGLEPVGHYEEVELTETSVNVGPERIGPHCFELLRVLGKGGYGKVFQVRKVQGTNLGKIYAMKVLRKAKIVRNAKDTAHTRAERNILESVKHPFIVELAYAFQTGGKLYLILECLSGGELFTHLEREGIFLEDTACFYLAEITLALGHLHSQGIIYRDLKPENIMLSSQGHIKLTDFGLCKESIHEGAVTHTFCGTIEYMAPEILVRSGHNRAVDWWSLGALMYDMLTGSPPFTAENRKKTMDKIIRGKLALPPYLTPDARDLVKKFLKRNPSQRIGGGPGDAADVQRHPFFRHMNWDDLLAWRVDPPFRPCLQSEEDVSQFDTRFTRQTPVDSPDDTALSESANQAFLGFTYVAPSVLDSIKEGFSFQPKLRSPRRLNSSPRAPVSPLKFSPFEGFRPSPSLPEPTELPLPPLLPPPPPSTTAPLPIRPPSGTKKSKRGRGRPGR

[11] = biological target: T3, Serine/threonine-protein kinase 17B (Homo sapiens) (UniProt O94768); assay: Inhibition of STK17B (unknown origin) at 5.5 uM by Caliper Mobility Shift Assay
T3 sequence (whole entry): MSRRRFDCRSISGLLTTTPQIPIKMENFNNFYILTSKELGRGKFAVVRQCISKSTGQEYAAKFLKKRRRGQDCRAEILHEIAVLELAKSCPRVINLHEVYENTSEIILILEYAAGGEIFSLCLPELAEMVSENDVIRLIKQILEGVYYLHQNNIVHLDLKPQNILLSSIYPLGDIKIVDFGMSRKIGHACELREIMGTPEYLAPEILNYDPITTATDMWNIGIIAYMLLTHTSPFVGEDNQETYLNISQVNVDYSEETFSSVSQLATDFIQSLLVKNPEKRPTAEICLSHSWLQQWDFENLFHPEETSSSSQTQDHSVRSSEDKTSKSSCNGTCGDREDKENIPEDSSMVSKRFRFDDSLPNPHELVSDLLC

[12] = biological target: T4, Ephrin type-B receptor 4 (Homo sapiens) (UniProt P54760); assay: Inhibition of EPHB4 (unknown origin) at 5.5 uM by Caliper Mobility Shift Assay
T4 sequence (whole entry): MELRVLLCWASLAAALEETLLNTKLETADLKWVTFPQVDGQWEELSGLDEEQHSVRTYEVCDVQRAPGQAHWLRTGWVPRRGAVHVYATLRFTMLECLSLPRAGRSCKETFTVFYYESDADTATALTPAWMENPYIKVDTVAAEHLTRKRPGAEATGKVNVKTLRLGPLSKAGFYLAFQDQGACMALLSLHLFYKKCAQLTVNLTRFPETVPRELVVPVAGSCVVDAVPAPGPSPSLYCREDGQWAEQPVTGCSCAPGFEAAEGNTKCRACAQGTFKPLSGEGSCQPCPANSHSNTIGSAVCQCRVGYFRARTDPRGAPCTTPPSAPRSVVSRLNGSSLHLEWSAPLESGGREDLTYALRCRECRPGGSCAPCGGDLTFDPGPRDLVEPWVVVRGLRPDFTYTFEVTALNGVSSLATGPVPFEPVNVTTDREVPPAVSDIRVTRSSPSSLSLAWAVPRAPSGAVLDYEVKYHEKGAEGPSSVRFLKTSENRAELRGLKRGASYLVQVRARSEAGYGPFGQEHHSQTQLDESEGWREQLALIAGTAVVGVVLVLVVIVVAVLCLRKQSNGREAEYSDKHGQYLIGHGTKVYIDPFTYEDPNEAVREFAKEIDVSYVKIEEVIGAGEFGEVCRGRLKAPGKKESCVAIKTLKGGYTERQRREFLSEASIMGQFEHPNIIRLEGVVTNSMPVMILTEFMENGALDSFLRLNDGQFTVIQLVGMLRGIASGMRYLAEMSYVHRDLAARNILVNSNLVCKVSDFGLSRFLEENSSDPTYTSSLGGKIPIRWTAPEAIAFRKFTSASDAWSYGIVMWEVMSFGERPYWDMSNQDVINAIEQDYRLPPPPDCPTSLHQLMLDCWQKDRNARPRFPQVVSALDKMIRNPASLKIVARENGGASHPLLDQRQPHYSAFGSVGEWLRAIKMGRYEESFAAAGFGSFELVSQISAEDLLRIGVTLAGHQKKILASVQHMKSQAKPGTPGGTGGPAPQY

Measured: inhibition

CC(=O)Nc1cc(-c2c(-c3ccc(F)cc3)nc(Sc3cccc(I)n3)n2C2CCCCC2)ccn1
< 50%: all assays above

CC(=O)Nc1cc(-c2c(-c3ccc(F)cc3)nc(S/C=C\C(=O)O)n2C2CC2)ccn1
< 50%: all assays above

COC(Cn1c(SC2CCC(C(=O)O)CC2O)nc(-c2ccc(F)cc2)c1-c1ccnc(NC(C)=O)c1)OC (stereo not given)
< 50%: all assays above

CC(=O)Nc1cc(-c2c(-c3ccc(F)cc3)nc(S/C=C\C(=O)O)n2C2CCCCC2)ccn1
< 50%: all assays above

CC(=O)Nc1cc(-c2c(-c3ccc(F)cc3)nc(S/C=C\C(=O)O)n2CC2CCCO2)ccn1 (racemic)
< 50%: all assays above
